Experimental findings from PMC6151865, “Targeting protein biotinylation enhances tuberculosis chemotherapy” (Science Translational Medicine, 2018) are described below.

For assay [1], the system named is Mtb mutant bioA TetON-1 strain. The format is cell-based, Mycobacterium tuberculosis.
The subject of assay [2] is Mtb carrying an Rv3406 overexpression plasmid (pGMEH-Ptb38-rv3406). The class given is cell-based, Mycobacterium tuberculosis.

Entries after “also recorded” stand apart in the source; their conditions may differ.

Turning to `CO[C@H]1/C=C/O[C@@]2(C)Oc3c(C)c(O)c4c(O)c(c(/C=N/N5CCN(C)CC5)c(O)c4c3C2=O)NC(=O)/C(C)=C\C=C\[C@H](C)[C@H](O)[C@@H](C)[C@@H](O)[C@@H](C)[C@H](OC(C)=O)[C@@H]1C` [rifampicin], the “sensitivity of bioA TetON-1 compared to wild-type Mtb” value in assay [1] is recorded as “more sensitive than wild-type Mtb; also recorded: more resistant than wild-type Mtb”.

In the case of `Nc1ncnc2c1ncn2[C@@H]1O[C@H](CNS(=O)(=O)NC(=O)CCCC[C@@H]2SC[C@@H]3NC(=O)N[C@@H]32)[C@@H](O)[C@H]1O` [Bio-AMS, 5′-[N-(d-biotinoyl)sulfamoyl]amino-5′-deoxyadenosine], the “resistance relative to wild-type Mtb” value in assay [2] is listed as 64 fold.
